# Read-outs that look alike come from different tables or passages of the source. *1 amine or outer side, *2 acyl side, *3 side chain or, on linkers, in order; H or OH if unused. Where a SMILES comes first, the peptide text is derived from it. [ ]: non-standard residue; d: D form. The star is where a group is joined. X2 = CC(C)C[C@@H](C(N)=O)S(=O)(=O)C[C@H](Cc1ccccc1)N*; X1 = CN(/C(=C\c1ccccc1)C(=O)[*:2])[*:1]; pGlu = O=C1CC[C@@H](C(=O)O)N1
# Assays:
# bombesin receptor [1] = target: T1, bombesin receptor (Mus musculus, UniProt P21729); assay: Competitive binding of 125I-GRP to the bombesin receptor in mouse pancreas membranes
# T1 construct: from tissue
# Experimental: (§1) Pept. […] Pept 32: 241-251, 1991.
# The pancreas from one or more mice were pooled and homogenized in 50 mM HEPES (pH 7.4) containing 120 mM NaCl, 5 mM KCl, and protease inhibitors (1 μg/ml aprotinin, leupeptin, pepstatin; 4 μg/ml bacitracin, antipain, bestatin; 100 μM PMSF; 1 mM EDTA) at 4° C. and centrifuged at 37,500 × g for 15 minutes. The pellet was resuspended in 50 mM HEPES (pH 7.4) containing 10 mM EDTA, 300 mM KCl, and protease inhibitors, and then incubated for 30 minutes at 4° C. The suspension was centrifuged as above and the pellet was washed two times in 50 mM HEPES (pH 7.4) containing 0.8 μg/ml thiorphan and protease inhibitors, and again centrifuged. The tissue was then resuspended in incubation buffer (1 ml per 4 mg pancreas) and incubated for 15 minutes at room temperature, then 250 μl were added to each assay tube to commence the assay. The assay tubes contained incubation buffer consisting of 50 mM HEPES (pH 7.4), 0.5% BSA, protease inhibitors, 2 mM MnCl2, 0.8 μg/ml thiorphan, 1 μM somatostatin, and concentrations of ^125 I-GRP and peptides as needed in a final volume of 500 μl. The assay was allowed to proceed to equilibrium for 90 minutes at room temperature. After this time, the contents of each tube were rapidly filtered over Whatman GF/B filters presoaked in 0.1% polyethyleneimine and the tubes and filters were rapidly washed three times with ice-cold 50 mM HEPES (pH 7.4). Filter-bound radioactivity was quantitated in a gamma counter. Competition of iodinated GRP binding by test compounds or standards was expressed as a percentage of ^125 I-GRP binding in the absence of peptide. Affinity and maximal binding were calculated with LIGAND (Biosoft, Cambridge, UK).
# bombesin receptor [2] = target: T1, bombesin receptor; assay: Phosphatidylinositol (PI) turnover in chopped mouse pancreas; assay type: cell-based
# Experimental: as §1
# Pancrea from mice were chopped at 350 μm with a tissue chopper and pooled in Krebs-Hepes buffer [118 mM NaCl, 1.2 mM K2 PO4, 4.7 mM KCl, 1.2 mM MgSO4, 1.0 mM CaCl2, 11.7 mM glucose, 20 mM Hepes (pH 7.4)]. The chopped tissue was washed once with oxygenated Krebs-Hepes,then incubated for 30 minutes in 37° C. oxygenated Krebs-Hepes buffer with fresh buffer after 15 minutes. The tissue was then incubated in this buffer containing 200 μCi of [^3 H]inositot at 37° C. for 1 hour. The tissue was then washed twice and incubated for another 30 minutes in oxygenated Krebs-Hepes (containing 10 mM Li+) at 37° C. and with fresh buffer change after 15 minutes. Portions of the tissue mass (approximately 10 mg per assay tube) were then placed in Li+ buffer with protease inhibitors (40 μg/ml bacitracin, 4 μg/ml leupeptin, 4 μg/ml chymostatin, 0.8 μg/ml thiorphan), 0.1% BSA, and 0.1-1000 μM peptide. After 60 minutes at room temperature, the phosphatidylinositol turnover was terminated by the addition of 940 μl chloroform:methanol (1:2), followed by 310 μl chloroform, followed by 310 μl water. Each tube was then vortexed three times for 5 seconds each time and then centrifuged at […] for 8 minutes to separate the phases. 50 μl of the bottom phase (chloroform) was withdrawn from each tube and placed in a counting vial, dried, and counted in scintillation fluid. 900 μl of the top (aqueous) phase was then mixed with 2.1 ml water and loaded onto a 0.5 ml Biorad AG-1×8 (formate) ion exchange column. The material on the columns was washed in order with: 1) 10 ml of water 2) 5 ml of […] disodium tetraborate/60 mM sodium formate 3) 10 ml of 1M ammonium formate in 0.1M formic acid. The final (third) wash was collected and one ml was mixed with 14 ml of Bio-Safe or E-Colume scintillant and counted. The ratio of these counts (total inositol phosphates) to the corresponding organic phase counts (inositol incorporated into the tissue) was then calculated for each sample. The ratios in the presence of test compound and/or standards were then compared to the ratios for control tubes (i.e., no stimulating agonist). The abilities of test compounds to stimulate phosphatidylinositol turnover were determined with the aid of a computer program.
# [3] = system: cell surface receptors that bind bombesin; conditions: background section; read-out: KD of high-affinity cell surface receptors that bind bombesin; cited from earlier work
# T1 sequence (P21729 whole entry): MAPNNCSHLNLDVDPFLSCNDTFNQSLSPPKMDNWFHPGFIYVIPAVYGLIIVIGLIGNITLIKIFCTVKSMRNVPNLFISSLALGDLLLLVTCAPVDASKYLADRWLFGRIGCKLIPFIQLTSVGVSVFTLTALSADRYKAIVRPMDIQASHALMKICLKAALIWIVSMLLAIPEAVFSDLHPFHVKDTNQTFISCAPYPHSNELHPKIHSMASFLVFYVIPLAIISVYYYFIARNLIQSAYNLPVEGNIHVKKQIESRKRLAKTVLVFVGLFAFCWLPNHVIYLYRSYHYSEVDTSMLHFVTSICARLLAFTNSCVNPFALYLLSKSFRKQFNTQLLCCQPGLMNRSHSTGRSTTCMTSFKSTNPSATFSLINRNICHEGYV
SMILES,Kd (bombesin receptor [1]),Antagonist (bombesin receptor [2]),Agonist (bombesin receptor [2]),other results
"COC(=O)/C(=C/c1ccccc1)NC(=O)[C@H](CC(C)C)NC(=O)[C@H](Cc1c[nH]cn1)NC(=O)CNC(=O)[C@@H](NC(=O)[C@H](C)NC(=O)[C@H](Cc1c[nH]c2ccccc12)NC(=O)[C@H](CCC(N)=O)NC(=O)[C@@H](Cc1ccccc1)NC(C)=O)C(C)C [Analog IV, (Ac-D-Phe^1,Leu^8,Δ^Z Phe9)litorin-OMe]",1.18 nM,,,
"CC(C)C[C@@H](C(N)=O)S(=O)(=O)C[C@H](Cc1ccccc1)NC(=O)[C@H](Cc1c[nH]cn1)NC(=O)CNC(=O)[C@@H](NC(=O)[C@H](C)NC(=O)[C@H](Cc1c[nH]c2ccccc12)NC(=O)[C@H](CCC(N)=O)NC(=O)[C@@H]1CCC(=O)N1)C(C)C [Analog IX, (Phe^8 .PSI.[CH2 SO2]Leu^9 litorin] ([pGlu]QWAVGH-X2; C-terminus assumed)",9.9 nM,30,,Agonist/antagonist character in words (bombesin receptor [2]; text under Table 1): antagonist
"CSCC[C@H](NC(=O)[C@H](CC(C)C)NC(=O)[C@H](Cc1cnc[nH]1)NC(=O)CNC(=O)[C@@H](NC(=O)[C@H](C)NC(=O)[C@H](Cc1c[nH]c2ccccc12)NC(=O)[C@H](CCC(N)=O)NC(=O)[C@H](CC(N)=O)NC(=O)CNC(=O)[C@H](CC(C)C)NC(=O)[C@H](CCCN=C(N)N)NC(=O)[C@H](CCC(N)=O)NC(=O)[C@@H]1CCC(=O)N1)C(C)C)C(N)=O [Analog II, Bombesin]",,-,+,Kd [3]: 1 nM
"COC(=O)/C(=C\c1ccccc1)NC(=O)[C@H](CC(C)C)NC(=O)[C@H](Cc1c[nH]cn1)NC(=O)CNC(=O)[C@@H](NC(=O)[C@H](C)NC(=O)[C@H](Cc1c[nH]c2ccccc12)NC(=O)[C@H](CCC(N)=O)NC(=O)[C@@H](Cc1ccccc1)NC(C)=O)C(C)C [Analog VII, (Ac-D-Phe^1,Leu^8,Δ^E Phe^9)litorin-OMe]",18.6 nM,,,
"CSCC[C@H](NC(=O)[C@H](Cc1ccccc1)NC(=O)[C@H](Cc1c[nH]cn1)NC(=O)CNC(=O)[C@@H](NC(=O)[C@H](C)NC(=O)[C@H](Cc1c[nH]c2ccccc12)NC(=O)[C@H](CCC(N)=O)NC(=O)[C@@H]1CCC(=O)N1)C(C)C)C(N)=O [Analog III, Litorin]",,-,+,
"COC(=O)/C(=C/c1ccccc1)N(C)C(=O)[C@H](CC(C)C)NC(=O)[C@H](Cc1c[nH]cn1)NC(=O)[C@@H](C)NC(=O)[C@@H](NC(=O)[C@H](C)NC(=O)[C@H](Cc1c[nH]c2ccccc12)NC(=O)[C@H](CCC(N)=O)NC(=O)[C@@H](Cc1ccccc1)NC(C)=O)C(C)C [Analog VIII, (Ac-D-Phe^1,D-Ala^6,Leu^8,N(Me)Δ^Z Phe^9) litorin-OMe] (Ac-[dF]QWAV[dA]HL[X1]-OMe)",,,,"Kd (bombesin receptor [1]; competitive binding vs 125I-GRP, mouse pancreas, read-out: Kd): 65.3 nM"
